This passage reports Activity, cytotoxicity and binding affinity results from US20220249457A1, “METHOD OF MODULATING RIBONUCLEOTIDE REDUCTASE” (CASE WESTERN RESERVE UNIVERSITY, priority 2019, published 2022).

The target in one series is T1, hRRM1 (Homo sapiens, UniProt P23921).
T1 construct: made in house; host or cells: E. coli BL21 DE3 (RIL)
T1 sequence (P23921 1-792): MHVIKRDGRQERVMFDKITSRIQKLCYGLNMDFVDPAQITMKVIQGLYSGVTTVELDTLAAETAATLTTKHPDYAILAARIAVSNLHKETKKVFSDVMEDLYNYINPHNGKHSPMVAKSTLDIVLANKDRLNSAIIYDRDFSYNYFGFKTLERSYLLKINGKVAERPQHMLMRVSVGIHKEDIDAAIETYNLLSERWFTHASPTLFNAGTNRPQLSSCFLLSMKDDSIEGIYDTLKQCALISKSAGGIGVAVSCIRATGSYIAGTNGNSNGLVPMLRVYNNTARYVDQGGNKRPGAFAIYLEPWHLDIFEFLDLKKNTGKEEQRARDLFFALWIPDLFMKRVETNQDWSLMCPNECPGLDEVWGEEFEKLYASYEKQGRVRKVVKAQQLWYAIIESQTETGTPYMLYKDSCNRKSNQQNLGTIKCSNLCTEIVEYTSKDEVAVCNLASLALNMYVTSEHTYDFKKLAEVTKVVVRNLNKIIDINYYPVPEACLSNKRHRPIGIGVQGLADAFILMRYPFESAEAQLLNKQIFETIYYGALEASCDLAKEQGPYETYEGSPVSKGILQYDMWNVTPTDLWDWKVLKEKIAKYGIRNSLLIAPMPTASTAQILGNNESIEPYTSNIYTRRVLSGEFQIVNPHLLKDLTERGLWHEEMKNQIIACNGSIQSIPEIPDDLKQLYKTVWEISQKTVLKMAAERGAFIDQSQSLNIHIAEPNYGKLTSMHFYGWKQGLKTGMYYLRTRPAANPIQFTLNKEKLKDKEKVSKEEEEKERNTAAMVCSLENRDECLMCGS
The series can be described thus: hRRM1 enzyme activity inhibition (RR radioactivity assay, boronate chromatography). It is filed as biochemical. Also on record: key: Compounds which are found to have extremely high potency are classified as “****”; Compounds which are found to have very high potency […] are classified as “***”. The following applies: potency ranking by minimum concentration required to inhibit enzyme activity; six concentrations 1-100 μM incubated with hRRM1 30 minutes, diluted by a factor of 5. The protocol:
Activity measurements in Table 2 is performed as described below. Briefly, six concentrations of the compounds ranging from 1-100 μM of the compounds are incubated on ice with 2.5 μmol of hRRM1 for 30 minutes. The assay sample was then diluted by a factor of 5, and enzyme activity was assayed in triplicate. […] Activity measurements are based on the qualitative relation between the minimum concentration of compound required to produce inhibit enzyme activity. Potency activities are ranked as either extremely high, very high or significant. These activities are used to determine the activity ranking. Compounds which are found to have extremely high potency are classified as “****” Compounds which are found to have very high potency […] are classified as “***”. Compounds which are found to have significant potency are classified as
In assay buffer, six concentrations of the compounds ranging from 1-100 μM of the compounds are incubated on ice with 2.5 μmol of hRRM1 for 30 minutes. The assay sample was then diluted by a factor of 5, and enzyme activity was assayed in triplicate.
The IC50 are determined using, boronate chromatography. Six concentrations of the RRmod are studied ranging from 1-100 μM. The assay is repeated in triplicate. Data are fitted in GraphPad Prism 6.05 using a sigmoidal dose-response curve.

For series [1], the system named is normal mobilized peripheral blood progenitor cells. The following applies: previously characterized; cited from earlier work.
A further series has as its target T2, hRRM1 hexamers (Homo sapiens, UniProt P23921).
T2 sequence (P23921 1-792): T1 sequence (P23921 1-792)
The following applies: cited from earlier work.

Take `Oc1ccccc1-c1nnc(-c2ccccc2O)o1`: the Activity entry on hRRM1 was “***”.

`COc1ccc(Br)c(-c2nnc(-c3ccccc3O)o2)c1O`: on hRRM1, the Activity entry is “***”.

Turning to `COc1ccc(-c2ccsc2)c(-c2nnc(-c3ccccc3O)o2)c1O`, the Activity result on hRRM1 is listed as “***”.

As for `Oc1ccccc1-c1nc(-c2ccccc2Br)no1`, at hRRM1, the Activity result was “****”.

For `Oc1ccccc1-c1nnc(-c2cc(-c3ccccc3)ccc2O)o1`, the Activity result on hRRM1 is recorded as “***”.

Regarding `COc1ccc(-c2ccccc2)c(-c2nnc(-c3ccccc3O)o2)c1O`, the Activity result at hRRM1 was “***”.

With `Oc1ccccc1-c1nc(-c2ccccc2-c2ccccc2)no1`, the Activity entry at hRRM1 is recorded as “***”.

`Oc1ccccc1-c1nc(-c2ccccc2-c2ccsc2)no1`: the Activity entry on hRRM1 is reported as “***”.

In the case of `Oc1ccccc1-c1cnc(-c2ccccc2O)s1`, the Activity result at hRRM1 is given as “***”.

As to `COc1ccc(-c2cnc(-c3ccccc3O)s2)cc1`, at hRRM1, the Activity entry is given as “***”.

With `Oc1ccccc1-c1noc(-c2cccs2)n1`, the Activity result on hRRM1 was “***”.

Consider `Oc1ccccc1-c1noc(-c2cccnc2)n1`, for which, at hRRM1, the Activity entry is “****”.

For the compound `Oc1ccccc1-c1nc(-c2cccnc2)no1`, the Activity entry on hRRM1 was “****”.

On to `c1cncc(-c2noc(-c3cccnc3)n2)c1`, for which, on hRRM1, the Activity result is given as “****”.

For `c1cncc(-c2noc(-c3cnc4ccccc4c3)n2)c1`, the Activity result on hRRM1 was “***”.

With `c1cncc(-c2noc(-c3ccco3)n2)c1`, the Activity entry at hRRM1 is “***”.

For the compound `c1cncc(-c2noc(-c3cccs3)n2)c1`, the Activity entry on hRRM1 is listed as “***”.

In the case of `COc1ccccc1-c1noc(-c2ccccc2O)n1`, at hRRM1, the Activity entry is “***”.

Take `COc1ccccc1-c1nc(-c2ccccc2O)no1`: at hRRM1, the Activity result is “****”.

In the case of `Oc1ccccc1-c1nc(-c2ccccc2OCc2ccccc2)no1`, the Activity result at hRRM1 is on record as “***”.

In the case of `Oc1ccccc1-c1c[nH]c(-c2ccccc2O)n1`, the Activity result at hRRM1 is reported as “***”.

Regarding `Oc1ccccc1-c1cn(-c2ccccc2O)nn1`, the Activity entry on hRRM1 was “***”.

Turning to `Oc1ccccc1-c1nnn(-c2ccccc2O)n1`, the Activity result at hRRM1 is listed as “***”.

With `Oc1ccc(Br)cc1-c1nnc(-c2cccnc2)o1`, the Activity entry on hRRM1 was “***”.

Turning to `O=C(NN=Cc1c(O)ccc2ccccc12)c1ccccc1O` [NSAAH, Naphthyl Salicyl Acyl Hydrazone], the cytotoxicity result in series [1] was “little measurable cytotoxicity”.

Regarding `Nc1nc(Cl)nc2c1ncn2[C@@H]1O[C@H](CO)[C@@H](O)[C@@H]1F` [clofarabine, 2′-fluro-2′-deoxyarabinofuranosyl-2-chloroadenine], the binding affinity entry at hRRM1 hexamers is “nanomolar affinity”.
